The compounds below were run against unphosphorylated-BTK kinase domain (UP-BTK), GST-tagged human BTK (389-659aa) (Homo sapiens (Human), UniProt Q06187) (assay: BTK Kinase Lanthascreen Binding Assay). Conditions: compound, 50 nM Tracer 236, 2 nM anti-GST antibody, 60 minutes; pIC50 = negative log of the IC50 in molar.
Method: BTK Kinase Lanthascreen Binding Assay:
A BTK kinase lanthascreen binding assay monitors compound binding to unphosphorylated-BTK kinase domain (UP-BTK), by competing with a fluorescent labeled tracer. […] Data were analyzed using Xlfit™ version 5.3 from ID Business Solutions (Guildford), Microsoft Excel add-in. pIC50 refers to the negative log of the IC50 in molar.

Chain of unphosphorylated-BTK kinase domain (UP-BTK), GST-tagged human BTK (389-659aa) (Q06187 389-659): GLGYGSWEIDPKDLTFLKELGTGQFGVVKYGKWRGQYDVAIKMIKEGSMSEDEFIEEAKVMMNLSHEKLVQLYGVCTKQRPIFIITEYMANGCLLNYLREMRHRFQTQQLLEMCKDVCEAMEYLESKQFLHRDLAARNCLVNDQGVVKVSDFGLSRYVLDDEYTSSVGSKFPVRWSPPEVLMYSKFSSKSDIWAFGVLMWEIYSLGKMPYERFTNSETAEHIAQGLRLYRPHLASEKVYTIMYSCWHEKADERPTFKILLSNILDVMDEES

BTK_I_binding pIC50 | SMILES
6.36 | Cc1cc(Oc2ccccc2)ccc1N1C(=O)Nc2c(C(=O)N[C@@]34C[C@@H]5C[C@@H](C[C@@](O)(C5)C3)C4)sc3nccc1c23 [Example 30, N-((1r,3s,5R,7S)-3-Hydroxyadamantan-1-yl)-5-(2-methyl-4-phenoxyphenyl)-4-oxo-4,5-dihydro-3H-1-thia-3,5,8-triazaacenaphthylene-2-carboxamide]
6.66 | CNC1CCCCC1NC(=O)c1sc2nccc3c2c1NC(=O)N3c1ccc(Oc2ccccc2)cc1C (centres unmarked) [Example 31, 5-(2-Methyl-4-phenoxyphenyl)-N-(2-(methylamino)cyclohexyl)-4-oxo-4,5-dihydro-3H-1-thia-3,5,8-triazaacenaphthylene-2-carboxamide]
7.12 | Cc1cc(Oc2ccccc2)ccc1N1C(=O)Nc2c(C(=O)N[C@H]3CCC[C@@H]3N(C)C)sc3nccc1c23 [Example 32, N-((1S,2S)-2-(Dimethylamino)cyclopentyl)-5-(2-methyl-4-phenoxyphenyl)-4-oxo-4,5-dihydro-3H-1-thia-3,5,8-triazaacenaphthylene-2-carboxamide]
6.98 | CC(=O)N[C@H]1CCCC[C@H]1NC(=O)c1sc2nccc3c2c1NC(=O)N3c1ccc(Oc2ccccc2)cc1C [Example 33, N-((1R,2S)-2-Acetamidocyclohexyl)-5-(2-methyl-4-phenoxyphenyl)-4-oxo-4,5-dihydro-3H-1-thia-3,5,8-triazaacenaphthylene-2-carboxamide]
6.91 | CCC(=O)N[C@H]1CCC[C@H]1NC(=O)c1sc2nccc3c2c1NC(=O)N3c1ccc(Oc2ccccc2)cc1C [Example 34, 5-(2-Methyl-4-phenoxyphenyl)-4-oxo-N-((1R,2S)-2-propionamidocyclopentyl)-4,5-dihydro-3H-1-thia-3,5,8-triazaacenaphthylene-2-carboxamide]
6.87 | CCC(=O)N[C@H]1CCCC[C@H]1NC(=O)c1sc2nccc3c2c1NC(=O)N3c1ccc(Oc2ccccc2)cc1C [Example 35, 5-(2-Methyl-4-phenoxyphenyl)-4-oxo-N-((1R,2S)-2-propionamidocyclohexyl)-4,5-dihydro-3H-1-thia-3,5,8-triazaacenaphthylene-2-carboxamide]
6.68 | CC(=O)N[C@H]1CCC[C@H]1NC(=O)c1sc2nccc3c2c1NC(=O)N3c1ccc(Oc2ccccc2)cc1C [Example 37, N-((1R,2S)-2-Acetamidocyclopentyl)-5-(2-methyl-4-phenoxyphenyl)-4-oxo-4,5-dihydro-3H-1-thia-3,5,8-triazaacenaphthylene-2-carboxamide]
6.68 | Cc1cc(Oc2ccccc2)ccc1N1C(=O)Nc2c(C(=O)N[C@@H]3CCCC[C@H]3N)sc3nccc1c23 [Example 38, N-((1R,2R)-2-Aminocyclohexyl)-5-(2-methyl-4-phenoxyphenyl)-4-oxo-4,5-dihydro-3H-1-thia-3,5,8-triazaacenaphthylene-2-carboxamide]
6.51 | Cc1cc(Oc2ccccc2)ccc1N1C(=O)Nc2c(C(=O)N[C@H]3CCC[C@H]3O)sc3nccc1c23 [Example 39, N-((1S,2R)-2-Hydroxycyclopentyl)-5-(2-methyl-4-phenoxyphenyl)-4-oxo-4,5-dihydro-3H-1-thia-3,5,8-triazaacenaphthylene-2-carboxamide]
6.40 | CC(=O)N[C@H]1CCC[C@@H]1NC(=O)c1sc2nccc3c2c1NC(=O)N3c1ccc(Oc2ccccc2)cc1C [Example 40, N-((1S,2S)-2-Acetamidocyclopentyl)-5-(2-methyl-4-phenoxyphenyl)-4-oxo-4,5-dihydro-3H-1-thia-3,5,8-triazaacenaphthylene-2-carboxamide]
6.37 | Cc1cc(Oc2ccccc2)ccc1N1C(=O)Nc2c(C(=O)N[C@H]3CCC[C@@H]3N)sc3nccc1c23 [Example 41, N-((1S,2S)-2-Aminocyclopentyl)-5-(2-methyl-4-phenoxyphenyl)-4-oxo-4,5-dihydro-3H-1-thia-3,5,8-triazaacenaphthylene-2-carboxamide]
6.24 | CCC(=O)N[C@@H]1CCCC[C@@H]1NC(=O)c1sc2nccc3c2c1NC(=O)N3c1ccc(Oc2ccccc2)cc1C [Example 42, 5-(2-Methyl-4-phenoxyphenyl)-4-oxo-N-((1S,2R)-2-propionamidocyclohexyl)-4,5-dihydro-3H-1-thia-3,5,8-triazaacenaphthylene-2-carboxamide]
6.23 | Cc1cc(Oc2ccccc2)ccc1N1C(=O)Nc2c(C(=O)N[C@@H]3CCCC[C@H]3N(C)C)sc3nccc1c23 [Example 43, N-((1R,2R)-2-(Dimethylamino)cyclohexyl)-5-(2-methyl-4-phenoxyphenyl)-4-oxo-4,5-dihydro-3H-1-thia-3,5,8-triazaacenaphthylene-2-carboxamide]
6.17 | CC(=O)N[C@@H]1CCCC[C@@H]1NC(=O)c1sc2nccc3c2c1NC(=O)N3c1ccc(Oc2ccccc2)cc1C [Example 44, N-((1S,2R)-2-Acetamidocyclohexyl)-5-(2-methyl-4-phenoxyphenyl)-4-oxo-4,5-dihydro-3H-1-thia-3,5,8-triazaacenaphthylene-2-carboxamide]
6.14 | CCC(=O)N[C@H]1CCC[C@@H]1NC(=O)c1sc2nccc3c2c1NC(=O)N3c1ccc(Oc2ccccc2)cc1C [Example 45, 5-(2-Methyl-4-phenoxyphenyl)-4-oxo-N-((1S,2S)-2-propionamidocyclopentyl)-4,5-dihydro-3H-1-thia-3,5,8-triazaacenaphthylene-2-carboxamide]
6.14 | CN[C@H]1CCC[C@@H]1NC(=O)c1sc2nccc3c2c1NC(=O)N3c1ccc(Oc2ccccc2)cc1C [Example 46, 5-(2-Methyl-4-phenoxyphenyl)-N-((1S,2S)-2-(methylamino)cyclopentyl)-4-oxo-4,5-dihydro-3H-1-thia-3,5,8-triazaacenaphthylene-2-carboxamide]
6.12 | CC(=O)N[C@@H]1CCCC[C@H]1NC(=O)c1sc2nccc3c2c1NC(=O)N3c1ccc(Oc2ccccc2)cc1C [Example 47, N-((1R,2R)-2-Acetamidocyclohexyl)-5-(2-methyl-4-phenoxyphenyl)-4-oxo-4,5-dihydro-3H-1-thia-3,5,8-triazaacenaphthylene-2-carboxamide]
6.12 | Cc1cc(Oc2ccccc2)ccc1N1C(=O)Nc2c(C(=O)N[C@H]3CCCC[C@H]3N(C)C)sc3nccc1c23 [Example 48, N-((1S,2R)-2-(Dimethylamino)cyclohexyl)-5-(2-methyl-4-phenoxyphenyl)-4-oxo-4,5-dihydro-3H-1-thia-3,5,8-triazaacenaphthylene-2-carboxamide]
6.12 | Cc1cc(Oc2ccccc2)ccc1N1C(=O)Nc2c(C(=O)N[C@H]3CCCC[C@H]3N)sc3nccc1c23 [Example 49, N-((1S,2R)-2-Aminocyclohexyl)-5-(2-methyl-4-phenoxyphenyl)-4-oxo-4,5-dihydro-3H-1-thia-3,5,8-triazaacenaphthylene-2-carboxamide]
6.07 | CN[C@@H]1CCCC[C@@H]1NC(=O)c1sc2nccc3c2c1NC(=O)N3c1ccc(Oc2ccccc2)cc1C [Example 50, 5-(2-Methyl-4-phenoxyphenyl)-N-((1S,2R)-2-(methylamino)cyclohexyl)-4-oxo-4,5-dihydro-3H-1-thia-3,5,8-triazaacenaphthylene-2-carboxamide]
